Source: paper PMC13172357 (Nature Communications, 2026)

How the values were obtained:
[1] = system: Ma-Mel-47 cells; test: Total proteome analysis, DIA mass spectrometry, Ma-Mel-47 cells; assay type: cell-based, H. sapiens; settings: DIA Ma-Mel-47, 1 µM
Procedure: (§1) Following treatment, cells were harvested, washed twice with PBS, and pellets were flash frozen in liquid nitrogen before being stored at −80 °C. Samples were prepared using the single-pot, solid-phase-enhanced sample-preparation (SP3) strategy. All buffers and solutions were prepared with mass spectrometry (MS)-grade water (Honeywell). Cell pellets were taken up in 100 µL 1x sample buffer (50 mM Hepes pH 8.0, 1% (wt/v) SDS, 1% (v/v) NP-40, 10 mM TCEP, 40 mM chloroacetamide) and samples were heated at 90 °C for 5 min prior to sonication with a Bioruptor UCD-300 (Diagenode) for ten cycles of 1 min pulse and 30 s pause at high power. The samples were then supplemented with Benzonase (20 U/sample) and sonified for 5 min in a water bath (Bandelin) followed by 30 min incubation at […].
(§2) The protein extracts were then centrifuged (20000 ×g, RT, 40 min) and the protein concentration of the cleared lysates was determined using the Pierce 660 nm Protein Assay Reagent (#22660; Thermo Scientific) with the Ionic Detergent Compatibility Reagent (#22663; Thermo Scientific) according to the manufacturers’ instructions. Next, 15 µg of total protein per sample in a volume of 100 µL sample buffer was transferred to a 500 µL 96-well plate and treated with 7 U of benzonase (#71206; Merck Millipore) in dilution buffer (20 mM Hepes pH 8.0, 2 mM MgCl2) at 37 °C for 30 min with agitation at 1500 rpm. After Benzonase treatment samples were heated to 90 °C for 5 min and after cooling down to room temperature, iodoacetamide to a final concentration of 10 mM was added for complete alkylation of cysteines (37 °C, 15 min, 1000 rpm, in the dark).
(§3) Then, 3 µL of a 50 µg/µL 1:1 mixture of hydrophilic (#45152105050250) and hydrophobic (#65152105050250) carboxylate modified Sera-Mag SpeedBeads (Cytiva), that were washed twice with MS-grade water, were added to the samples. The next steps were carried out at room temperature unless noted otherwise. Afterwards, the samples were mixed shortly (1 min, 1000 rpm) and collected by short centrifugation (10 s, 200 ×g). […]

[2] = molecular target: T1, NanoLuc-USP7 and HaloTag-VHL (Homo sapiens, UniProt P40337+Q93009); test: Cellular ternary complex formation assay (NanoBRET), HEK293T cells; assay type: cell-based; settings: for Ternary complex induction (in words): NanoBRET
T1 construct: expressed in transfected cells; host or cells: HEK293T, transient transfection (FuGENE HD)
T1 sequence (Q93009 whole entry): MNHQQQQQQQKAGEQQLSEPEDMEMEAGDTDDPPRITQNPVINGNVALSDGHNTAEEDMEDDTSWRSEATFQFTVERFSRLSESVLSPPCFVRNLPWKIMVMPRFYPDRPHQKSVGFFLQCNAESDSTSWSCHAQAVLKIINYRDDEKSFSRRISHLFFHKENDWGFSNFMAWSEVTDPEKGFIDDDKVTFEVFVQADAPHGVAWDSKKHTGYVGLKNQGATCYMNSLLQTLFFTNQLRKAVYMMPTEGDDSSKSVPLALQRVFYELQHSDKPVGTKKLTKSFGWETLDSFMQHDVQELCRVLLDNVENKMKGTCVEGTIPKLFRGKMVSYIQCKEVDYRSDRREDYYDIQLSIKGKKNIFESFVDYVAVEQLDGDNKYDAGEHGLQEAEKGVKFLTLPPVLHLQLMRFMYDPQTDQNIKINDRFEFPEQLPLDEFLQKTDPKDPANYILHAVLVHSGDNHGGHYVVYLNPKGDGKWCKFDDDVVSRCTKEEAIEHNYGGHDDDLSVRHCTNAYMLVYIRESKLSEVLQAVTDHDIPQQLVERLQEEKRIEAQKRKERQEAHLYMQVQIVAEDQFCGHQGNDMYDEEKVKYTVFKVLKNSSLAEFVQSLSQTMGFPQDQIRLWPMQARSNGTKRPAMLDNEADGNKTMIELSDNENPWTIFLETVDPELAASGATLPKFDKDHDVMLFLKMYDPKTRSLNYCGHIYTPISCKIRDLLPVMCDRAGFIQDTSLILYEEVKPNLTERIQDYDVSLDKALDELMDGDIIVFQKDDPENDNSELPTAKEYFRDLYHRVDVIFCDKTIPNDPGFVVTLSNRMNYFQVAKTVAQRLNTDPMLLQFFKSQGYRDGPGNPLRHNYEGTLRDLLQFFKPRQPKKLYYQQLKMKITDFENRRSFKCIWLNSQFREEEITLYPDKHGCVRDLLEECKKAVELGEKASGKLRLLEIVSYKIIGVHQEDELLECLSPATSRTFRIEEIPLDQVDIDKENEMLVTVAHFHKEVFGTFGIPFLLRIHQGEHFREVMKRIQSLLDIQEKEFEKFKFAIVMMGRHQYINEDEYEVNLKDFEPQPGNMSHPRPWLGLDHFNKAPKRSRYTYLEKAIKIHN
T1 sequence (P40337 whole entry): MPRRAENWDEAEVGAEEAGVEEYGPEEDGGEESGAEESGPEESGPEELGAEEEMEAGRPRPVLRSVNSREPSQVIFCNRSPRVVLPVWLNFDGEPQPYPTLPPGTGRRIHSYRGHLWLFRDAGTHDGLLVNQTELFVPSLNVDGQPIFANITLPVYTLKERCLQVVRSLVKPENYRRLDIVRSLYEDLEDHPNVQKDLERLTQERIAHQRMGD
T1 sequence (Q15370 whole entry partner): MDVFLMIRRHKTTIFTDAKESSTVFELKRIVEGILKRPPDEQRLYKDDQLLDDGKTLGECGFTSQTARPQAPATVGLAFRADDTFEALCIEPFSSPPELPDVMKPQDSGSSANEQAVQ
T1 sequence (Q15369 whole entry partner): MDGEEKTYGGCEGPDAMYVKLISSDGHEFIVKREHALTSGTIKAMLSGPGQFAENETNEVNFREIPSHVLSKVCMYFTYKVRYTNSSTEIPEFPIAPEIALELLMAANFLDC
Procedure: The assay was performed as described step-by-step elsewhere. USP7 (NanoLuc-USP7) and VHL (HaloTag-VHL) were cloned in frame with N-terminal NanoLuc or HaloTag, respectively. For transfections, HEK293T cells were diluted in Opti-MEM medium without phenol red (Life Technologies) to 4×10^5 cells/mL and 9 µL were pipetted into each well of a white 384-well plate (Greiner 781207). 1 mL transfection mix was prepared containing 30 µL FuGENE HD (Promega, E2312) and 8 µL of each plasmid, incubated 20 min at RT and 1 µL were pipetted into each well leading to the total assay volume of 10 µL. […] 2 h prior to BRET measurements, the compounds were titrated to the cells using an Echo acoustic dispenser and the cells were incubated further at 37 °C and 5% CO2 to allow complex formation. NanoBRET Nano-Glo substrate and Extracellular NanoLuc Inhibitor (Promega, N2540) were then added as per the manufacturer’s protocol, and filtered luminescence was recorded on a PHERAstar FSX plate reader (BMG Labtech) equipped with a luminescence filter pair (donor: 450 nm BP filter; acceptor: 610 nm LP filter). Data were analyzed using GraphPad Prism 10 software.

[3] = system: Panc89 cells; test: Total proteome analysis, DIA mass spectrometry, Panc89 cells; assay type: cell-based, H. sapiens; settings: DIA Panc89, 1 µM
Procedure: as §1
as §2, with “After Benzonase treatment samples were heated to 90 °C for 5 min and after cooling down to room temperature, iodoacetamide to a final concentration of 10 mM was added for complete alkylation of cysteines (37 °C, 15 min, 1000 rpm, in the dark).” left out

[4] = system: Panc89 cells; test: Confluence measurement (cell growth), Panc89; assay type: cell-based, human; settings: Panc89, 1-10 µM, 72 h, 25 mM or 5 mM D-glucose
[5] = system: Panc89 cells; test: Total proteome analysis, DDA mass spectrometry, Panc89 cells; assay type: cell-based, H. sapiens; settings: DDA Panc89, 1 µM
Procedure: as §1, §2, §3

[6] = molecular target: T2, USP7 (Homo sapiens, UniProt Q93009); test: Immunofluorescence staining of USP7, Panc89 cells; assay type: cell-based; settings: Panc89, 1 µM, 24 h
T2 construct: allowed the analysis of endogenous USP7 degradation in both cell lines; endogenous in cells; host or cells: Panc89 (PDAC) and Ma-Mel-47 (melanoma) cells
T2 sequence (Q93009 whole entry): as the sequence (Q93009 whole entry) above
Procedure: Panc89 cells were seeded on 96-well plates (89626, Ibidi) and treated with either DMSO or compound for the indicated time and concentration. Cells were then fixed with 4% PFA in PBS for 20 min, permeabilized with 0.1% Triton X-100 in PBS for 10 min and incubated in blocking buffer containing 2% BSA in PBS for 1 h. Three 10 min washes with PBS were performed between different steps. Cells were treated with primary antibody anti-USP7 (ab190183, Abcam, rabbit, 1:500) in blocking solution for 1 h at RT. […] Finally, cells were stained with DAPI (Invitrogen, 1 µg/mL) in PBS for 10 min and mounted with aqueous mounting medium (50001, Ibidi) for microscopy. Plates were imaged on a fully automated inverted EVOS M7000 microscope system (Invitrogen) with X-Apo 20x air objective (0.8 NA, Olympus, AMEP4906) using DAPI (AMEP4950), GFP (AMEP4951), RFP (AMEP4952), and Cy5 (AMEP4956) LED light cubes. Images were captured using a high-sensitivity 3.2 MP monochrome CMOS camera and were processed with Omero (v. web 5.28.0).

Cc1ncsc1-c1ccc([C@H](C)NC(=O)[C@@H]2C[C@@H](O)CN2C(=O)[C@@H](NC(=O)C23C4C5C2C2C3C4C52C(=O)N2CCC(C3CCN(c4ccc(-n5ncc6c(=O)n(CC7(O)CCN(C(=O)C[C@@H](C)c8ccccc8)CC7)cnc65)cc4)CC3)CC2)C(C)(C)C)cc1 (stereo partly drawn) [NK266]
USP7 protein level change (in words) ([1]; 6 h): only minimal reduction
USP7 protein level change (in words) ([1]; 24 h): the most decreased protein
Ternary complex induction (in words) [2]: did not increase the BRET signal to the same level

Cc1ncsc1-c1ccc(CNC(=O)[C@@H]2C[C@H](O)CN2C(=O)[C@@H](NC(=O)[C@H]2CC[C@H](C(=O)N3CCN(c4ccc(-n5ncc6c(=O)n(CC7(O)CCN(C(=O)C[C@@H](C)c8ccccc8)CC7)cnc65)cc4)CC3)CC2)C(C)(C)C)cc1 [NK245]
Changes to the proteome (in words) ([1]; 72 h): only showed minimal changes to the proteome
Ternary complex induction (in words) [2]: neither the negative control NK245 nor the VHL ligand VH298 induced a ternary complex
Changes to the proteome (in words) ([3]; 72 h): only showed minimal changes to the proteome

Cc1ncsc1-c1ccc([C@H](C)NC(=O)[C@@H]2C[C@@H](O)CN2C(=O)[C@@H](NC(=O)[C@H]2CC[C@H](C(=O)N3CCN(c4ccc(-n5ncc6c(=O)n(CC7(O)CCN(C(=O)C[C@@H](C)c8ccccc8)CC7)cnc65)cc4)CC3)CC2)C(C)(C)C)cc1 [NK250]
Cell growth (in words) [4]: not affected
Proteins significantly decreased (in words) ([5]; 6 h): USP7 was the only protein significantly decreased
Reduction of USP7 protein levels ([5]; after three days): more than 100 fold
EC50 ([2]; compound 2 h prior BRET measurement, read-out: EC50 (half-maximal ternary complex formation concentration)): 58 nM
Proteins significantly decreased (in words) ([3]; 6 h): USP7 was the only protein that was significantly decreased
USP7 immunofluorescence signal (in words) [6]: strongly reduced
